Reference: PMC12013085, “Peptides targeting RAB11A–FIP2 complex inhibit HPIV3, RSV, and IAV replication as broad-spectrum antivirals” (Cell & Bioscience, 2025)
Where a SMILES comes first, the peptide text is derived from it.

What was measured:
IAV = type: cell-based, influenza A virus; details: IAV MOI 0.01, 5 μM, 24 hpi, TCID50
HPIV3, RSV, and IAV = type: cell-based
HPIV3 VLPs in 293T cells = experiment: HPIV3 VLP budding and plasma membrane fraction assay, WB; type: cell-based; details: 293T cells, compared to Tat-treated control
Protocol: (§1) Data are presented as means ± SEM
The cell lysates were prepared as described for the Western blot (WB) analysis. The supernatant was harvested and clarified by centrifugation at 12,000×g for 5 min. Subsequently, the supernatant was pelleted through a 20% sucrose cushion at 4 °C at 35,000 rpm for 2 h. The VLP pellets obtained were resuspended in PBS and boiled with SDS-PAGE loading buffer at 100 °C for 10 min. Both the cell lysates and the supernatants were then subjected to WB analysis.
293T cells, cultured in 6-cm dishes, were transfected with the indicated plasmids for 24 h. Cell collection was performed through centrifugation at 500×g for 5 min at 4 °C. Subsequently, cytosol, organelle membrane, and plasma membrane-associated proteins were extracted sequentially using the MinuteTM plasma membrane protein isolation and cell fractionation kit (INVENT), following the manufacturer's instructions.

HPIV3HA-P vRNP = experiment: vRNP distribution by immunofluorescence in HPIV3HA-P-infected HeLa cells; type: cell-based; details: HPIV3HA-P MOI = 0.01, 5 μM peptide, 24 h
Protocol: as §1
HeLa cells were cultured on coverslips in 24-well plates overnight and subjected to transfection or/and virus infection as indicated. Following this, cells were fixed with 4% paraformaldehyde for 20 min at room temperature (RT) and permeabilized with 0.2% Triton X-100 for 20 min at RT. Subsequently, cells were blocked with 3% bovine serum albumin (BSA) in PBS for 30 min at RT. The cells were then incubated with primary antibodies diluted in 1% BSA, followed by incubation with secondary antibodies, also diluted in 1% BSA. Nuclei were counterstained with DAPI, and plasma membrane were stained with Dil. Confocal microscopy images were acquired using a Leica confocal microscope.

EV71 = type: cell-based, Enterovirus 71; details: HeLa cells, EV71 MOI = 0.1, escalating concentrations, 24 hpi, TCID50
[1] = In vivo biodistribution of Cy5-YT-DRI, IVIS imaging; details: BALB/c mice, i.p. administration
Protocol: Female BALB/c mice, aged 6–8 weeks, were randomly divided into two groups. One group received an intraperitoneal injection of PBS (n = 3) for background fluorescence measurement, while the other group received 5 mg/kg Cy5-YT-DRI (n = 3). Bioluminescence readings were performed at various time points using the IVIS Lumina K Series III. Following imaging, mice were euthanized, and the indicated tissues were collected for further evaluation of fluorescence values. The average radiance is expressed as the sum of photons per second from each pixel inside the region of interest per the number of pixels (p s^−1 cm^−2 sr^−1).
Supplementary file 13578_2025_1384_MOESM7_ESM.tif: Supplementary Material 7. Fig. S7. In Vivo biodistribution of Cy5-YT-DRI. (A) Mice were treated with PBS or Cy5-YT-DRI (5mg/kg) via intraperitoneal injection. Bioluminescence readings were conducted at different time points using the IVIS Lumina K Series III for ventral (the upper row) and dorsal (the lower row) views, and the average radiance is expressed as the sum of the photons per second from each pixel inside the region of interest per the number of pixels (p s−1 cm−2 sr−1). (B-F) Representative images of the brains(B), lungs (C), livers (D), kidneys (E), and hearts (F) from the PBS-treated or Cy5-YT-DRI-treated mice. (G) Normalized bioluminescence results are expressed as means ± SEM from at least two experiments. […]

[2] = tested on: HPIV3 clinical strain VR93; type: in vivo, nude BALB/c mice
RSV [3] = type: in vivo, nude BALB/c mice
WSN virus = type: in vivo, BALB/c mice
[4] = In vivo drug toxicity study; details: male ICR mice, 5 or 10 mg/kg i.p. for consecutive 3 days
Protocol: The 6–8 weeks old male ICR male mice, were randomly assigned into three groups and each group had 5 mice. The mice were i.p. injected with 5 mg/kg YT-DRI, 10 mg/kg YT-DRI, or the same volume of PBS for consecutive 3 days. During the experiment, body weight was recorded for 15 days. At the end of the experiment, the mice were perfused, and tissue samples of heart, liver, lung, and kidney were collected for histopathological examination.
Supplementary file 13578_2025_1384_MOESM8_ESM.tif: Supplementary Material 8. Fig. S8. In vivo safety of YT-DRI. (A) Body weight changes of the 6-week-old ICR mice treated with PBS or 5 mg/kg or 10 mg/kg of YT-DRI at the indicated time points. (B) Hematoxylin and eosin staining of various tissues under an optical microscope for histopathological morphology analysis at 14 days after i.p. administration. Scale bar, 200 μm.

RSV [5] = tested on: RSV
[6] = tested on: HeLa, A549, MK2, MDCK and HEp-2 cells; details: CCK-8, 24 h treatment, in the tested cell lines (HeLa, A549, MK2, MDCK, HEp-2)
RAB11A–FIP2 complex = experiment: In vitro co-IP of mixed 293T lysates (FIP2, N protein, RAB11A)
Protocol: 293 T cells were individually transfected with plasmids encoding FIP2, the N protein, and RAB11A for 36 h, after which their lysates were mixed for in vitro co-IP analysis. […] All experiments were independently replicated at least twice with consistent results. Statistical significance (*p < 0.05) was determined by two-sided unpaired t-test. Data are presented as means ± SEM
293T cells were transfected with the indicated plasmids for 36 h, and cell lysates were prepared using lysis buffer as described in the Western blot (WB) analysis section. The supernatants were collected and incubated with anti-Flag or anti-Myc magnetic beads (MCE) following the manufacturer’s instructions for co-IP. The immunoprecipitated proteins were then analyzed via WB.

## CC[C@@H](C)[C@@H](NC(=O)[C@@H](CC(=O)O)NC(=O)[C@@H](CC(N)=O)NC(=O)[C@@H](CC(C)C)NC(=O)[C@@H](CC(C)C)NC(=O)[C@H](NC(=O)[C@@H](CCCNC(=N)N)NC(=O)[C@H](NC(=O)[C@@H](CCSC)NC(=O)[C@@H](CCC(=O)O)NC(=O)[C@@H](CCC(=O)O)NC(=O)[C@H](NC(=O)[C@@H](CCCNC(=N)N)NC(=O)[C@@H](CCCCN)NC(=O)[C@@H](CCCCN)NC(=O)[C@@H](CCCNC(=N)N)NC(=O)[C@@H](CCCNC(=N)N)NC(=O)[C@@H](CCC(N)=O)NC(=O)[C@@H](CCCNC(=N)N)NC(=O)[C@@H](CCCNC(=N)N)NC(=O)[C@H](N)CCCNC(=N)N)[C@H](C)O)C(C)C)C(C)C)C(=O)N[C@H](Cc1ccc(O)cc1)C(=O)O [YT-DRI] (HELM PEPTIDE1{[dR].[dR].[dR].[dQ].[dR].[dR].[dK].[dK].[dR].[dT].[dE].[dE].[dM].[dV].[dR].[dV].[dL].[dL].[dN].[dD].[dI].[dY]}$$$$V2.0; N-terminus and C-terminus assumed)
IAV
  antiviral effect on IAV infection in RAB11A-KO HeLa cells: no significant antiviral effect
HPIV3, RSV, and IAV
  replication of HPIV3, RSV, and IAV in coinfection (viral RNA accumulation): markedly impeded the replication
HPIV3 VLPs in 293T cells
  levels of N, P, and M proteins in the PM fraction and VLPs: reduced levels
HPIV3HA-P vRNP
  vRNP localization: formation of large aggregates of vRNP in the cytoplasm
EV71
  EV71 replication, treated compared to untreated cells: no significant differences
[1]
  transport across the blood–brain barrier: facilitated transport across the blood–brain barrier
[2]; 2 mg/kg i.p. once daily Day 0 to Day 2, vs PBS, n = 5
  body weight loss, HPIV3-infected mice: less weight loss
[2]; 2 mg/kg i.p., 3 dpi, H&E, vs PBS
  lung histology, HPIV3: reduced lung inflammation
[2]; 2 mg/kg i.p., 3 dpi, RT-qPCR
  viral RNA copies in the lung, HPIV3: significantly decreased
[2]; 2 mg/kg i.p., 3 dpi, TCID50
  infectious titers in the lung, HPIV3: significantly decreased
RSV [3]; 2 mg/kg i.p. once daily Day 0 to Day 3, vs PBS, n = 5
  body weight loss, RSV-infected mice: reduced body weight loss
RSV [3]; 2 mg/kg i.p., 4 dpi, H&E
  lung histology, RSV: diminished lung tissue damage
RSV [3]; 2 mg/kg i.p., 4 dpi, RT-qPCR
  viral RNA copies in the lung, RSV: lower viral RNA copies
RSV [3]; 2 mg/kg i.p., 4 dpi, TCID50
  infectious titers in the lung, RSV: decreased infectious titers
WSN virus; 2 mg/kg i.p. once daily Day 0 to Day 4
  body weight loss, IAV (WSN)-infected mice: reduced body weight loss
WSN virus; 2 mg/kg i.p. once daily Day 0 to Day 4, observed until 14 dpi, n = 5
  survival rate, lethal IAV (WSN) infection: 80%
WSN virus; 2 mg/kg i.p., 4 dpi, RT-qPCR, vs PBS
  viral RNA copies in the lungs, IAV (WSN): decreased viral RNA copies
WSN virus; 2 mg/kg i.p., 4 dpi, vs PBS
  lung histology, IAV (WSN): milder lung inflammation
[4]; body weight recorded for 15 days, 5 mice per group
  acute toxicity: body weight: no significant changes
[4]; heart, liver, lung, kidney, H&E
  acute toxicity: histopathological morphology: no significant changes
HPIV3
  HPIV3 viral growth in WT HeLa cells: significant reduction in viral growth
  effect on HPIV3 in RAB11A-KO HeLa cells: moderate and statistically insignificant
HPIV3; 36 h
  IC50: 940 nM
  SI (CC50/IC50), HPIV3, A549: > 263.16
  SI (CC50/IC50), HPIV3, HeLa: > 159.57
  SI (CC50/IC50), HPIV3, MDCK: > 102.74
RSV [5]; 2 h
  SI (CC50/IC50), RSV, A549: > 405.41
  SI (CC50/IC50), RSV, HEp-2: > 681.82
  SI (CC50/IC50), RSV, HeLa: > 220.59
  SI (CC50/IC50), RSV, MDCK: > 326.09
RSV [5]; RSV MOI 0.1, 5 μM, 24 hpi, TCID50
  antiviral effect on RSV infection in RAB11A-KO HeLa cells: no significant antiviral effect
[6]
  CC50: > 150000 nM
RAB11A–FIP2 complex
  N-RAB11A interaction: undetectable
RAB11A–FIP2 complex; in contrast to control peptide Tat
  interaction between FIP2 and RAB11A: significantly attenuated
